For experiment [1], the target named is Serine/threonine-protein kinase 38-like (Homo sapiens) (UniProt Q9Y2H1). The experiment in a line: Inhibition of T7 bacteriophage fused human NDR2 at 10 uM by KINOMEscan analysis relative to control.
The target in experiment [2] is Fibroblast growth factor receptor 3 (Homo sapiens) (UniProt P22607). The experiment in a line: Inhibition of T7 bacteriophage fused human FGFR3 at 10 uM by KINOMEscan analysis relative to control; values are per cent of control.
Experiment [3] has as its target Serine/threonine-protein kinase MRCK beta (Homo sapiens) (UniProt Q9Y5S2). Description: Inhibition of T7 bacteriophage fused human MRCKB at 10 uM by KINOMEscan analysis relative to control.
The target in experiment [4] is Dual specificity mitogen-activated protein kinase kinase 1 (Homo sapiens) (UniProt Q02750). Description: Inhibition of T7 bacteriophage fused human MEK1 at 10 uM by KINOMEscan analysis relative to control.
The target of experiment [5] is Serine/threonine-protein kinase D3 (Homo sapiens) (UniProt O94806). Description: Inhibition of T7 bacteriophage fused human PRKD3 at 10 uM by KINOMEscan analysis relative to control.
The target in experiment [6] is Mitogen-activated protein kinase kinase kinase kinase 3 (Homo sapiens) (UniProt Q8IVH8). Description: Inhibition of T7 bacteriophage fused human MAP4K3 at 10 uM by KINOMEscan analysis relative to control; values are per cent of control.
The test system of experiment [7] is Phosphatidylinositol 4,5-bisphosphate 3-kinase catalytic subunit alpha isoform (Homo sapiens), P42336 [Q546K]. Description: Inhibition of T7 bacteriophage fused human PIK3CA Q546K mutant at 10 uM by KINOMEscan analysis relative to control.
Experiment [8] deals with Calcium/calmodulin-dependent protein kinase type IV (Homo sapiens) (UniProt Q16566). The experiment in a line: Inhibition of T7 bacteriophage fused human CAMK4 at 10 uM by KINOMEscan analysis relative to control.
Experiment [9] deals with Serine/threonine-protein kinase Nek5 (Homo sapiens) (UniProt Q6P3R8). Description: Inhibition of T7 bacteriophage fused human NEK5 at 10 uM by KINOMEscan analysis relative to control.
In experiment [10] the test system is Phosphatidylinositol 4,5-bisphosphate 3-kinase catalytic subunit alpha isoform (Homo sapiens), P42336 [E545A]. The experiment in a line: Inhibition of T7 bacteriophage fused human PIK3CA E545A mutant at 10 uM by KINOMEscan analysis relative to control.
For experiment [11], the target named is Mitogen-activated protein kinase kinase kinase kinase 4 (Homo sapiens) (UniProt O95819). The experiment in a line: Inhibition of T7 bacteriophage fused human MAP4K4 at 10 uM by KINOMEscan analysis relative to control; values are per cent of control.
Experiment [12] concerns the target Ephrin type-A receptor 8 (Homo sapiens) (UniProt P29322). The experiment in a line: Inhibition of T7 bacteriophage fused human EPHA8 at 10 uM by KINOMEscan analysis relative to control; values are per cent of control.
The target in experiment [13] is Dual specificity mitogen-activated protein kinase kinase 3 (Homo sapiens) (UniProt P46734). Description: Inhibition of T7 bacteriophage fused human MEK3 at 10 uM by KINOMEscan analysis relative to control; values are per cent of control.
Experiment [14] has as its target Phosphorylase b kinase gamma catalytic chain, liver/testis isoform (Homo sapiens) (UniProt P15735). The experiment in a line: Inhibition of T7 bacteriophage fused human PHKG2 at 10 uM by KINOMEscan analysis relative to control.
For experiment [15], the target named is Phosphorylase b kinase gamma catalytic chain, skeletal muscle/heart isoform (Homo sapiens) (UniProt Q16816). Description: Inhibition of T7 bacteriophage fused human PHKG1 at 10 uM by KINOMEscan analysis relative to control.
Experiment [16] concerns the target RAC-alpha serine/threonine-protein kinase (Homo sapiens) (UniProt P31749). Description: Inhibition of T7 bacteriophage fused human AKT1 at 10 uM by KINOMEscan analysis relative to control.
Experiment [17] concerns the target Receptor tyrosine-protein kinase erbB-3 (Homo sapiens) (UniProt P21860). Description: Inhibition of T7 bacteriophage fused human ERBB3 at 10 uM by KINOMEscan analysis relative to control.
The target in experiment [18] is Mitogen-activated protein kinase kinase kinase 9 (Homo sapiens) (UniProt P80192). The experiment in a line: Inhibition of T7 bacteriophage fused human MLK1 at 10 uM by KINOMEscan analysis relative to control; values are per cent of control.
Experiment [19] concerns the target Casein kinase I isoform gamma-1 (Homo sapiens) (UniProt Q9HCP0). Description: Inhibition of T7 bacteriophage fused human CSNK1G1 at 10 uM by KINOMEscan analysis relative to control.
Experiment [20] concerns Epidermal growth factor receptor (Homo sapiens), P00533 [L858R,T790M]. Description: Inhibition of T7 bacteriophage fused human EGFR L858R/T790M mutant at 10 uM by KINOMEscan analysis relative to control.
Experiment [21] has as its target Mitogen-activated protein kinase kinase kinase 2 (Homo sapiens) (UniProt Q9Y2U5). Description: Inhibition of T7 bacteriophage fused human MAP3K2 at 10 uM by KINOMEscan analysis relative to control; values are per cent of control.
For experiment [22], the target named is Phosphatidylinositol 4,5-bisphosphate 3-kinase catalytic subunit gamma isoform (Homo sapiens) (UniProt P48736). The experiment in a line: Inhibition of T7 bacteriophage fused human PIK3CG at 10 uM by KINOMEscan analysis relative to control.
The target in experiment [23] is Serine/threonine-protein kinase RIO2 (Homo sapiens) (UniProt Q9BVS4). Description: Inhibition of T7 bacteriophage fused human RIOK2 at 10 uM by KINOMEscan analysis relative to control.
The target in experiment [24] is Calcium/calmodulin-dependent protein kinase type II subunit delta (Homo sapiens) (UniProt Q13557). The experiment in a line: Inhibition of T7 bacteriophage fused human CAMK2D at 10 uM by KINOMEscan analysis relative to control.
The target of experiment [25] is Serine/threonine-protein kinase TAO2 (Homo sapiens) (UniProt Q9UL54). Description: Inhibition of T7 bacteriophage fused human TAOK2 at 10 uM by KINOMEscan analysis relative to control.
The target in experiment [26] is Tyrosine-protein kinase JAK3 (Homo sapiens) (UniProt P52333). The experiment in a line: Inhibition of T7 bacteriophage fused human JAK3 JH1catalytic domain at 10 uM by KINOMEscan analysis relative to control.
In experiment [27] the target is Casein kinase II subunit alpha' (Homo sapiens) (UniProt P19784). The experiment in a line: Inhibition of T7 bacteriophage fused human CSNK2A2 at 10 uM by KINOMEscan analysis relative to control; values are per cent of control.
In experiment [28] the target is Fibroblast growth factor receptor 2 (Homo sapiens) (UniProt P21802). Description: Inhibition of T7 bacteriophage fused human FGFR2 at 10 uM by KINOMEscan analysis relative to control; values are per cent of control.
Experiment [29] deals with Serine/threonine-protein kinase STK11 (Homo sapiens) (UniProt Q15831). The experiment in a line: Inhibition of LKB1 Lys2 labeling site in human HEL cell lysate at 10 uM by KiNativ profiling analysis relative to control. The experiment is classed as subcellular.

Each structure is given as a SMILES string.

RAC-alpha serine/threonine-protein kinase (Homo sapiens), sequence (P31749 whole entry, the tested form may be a part): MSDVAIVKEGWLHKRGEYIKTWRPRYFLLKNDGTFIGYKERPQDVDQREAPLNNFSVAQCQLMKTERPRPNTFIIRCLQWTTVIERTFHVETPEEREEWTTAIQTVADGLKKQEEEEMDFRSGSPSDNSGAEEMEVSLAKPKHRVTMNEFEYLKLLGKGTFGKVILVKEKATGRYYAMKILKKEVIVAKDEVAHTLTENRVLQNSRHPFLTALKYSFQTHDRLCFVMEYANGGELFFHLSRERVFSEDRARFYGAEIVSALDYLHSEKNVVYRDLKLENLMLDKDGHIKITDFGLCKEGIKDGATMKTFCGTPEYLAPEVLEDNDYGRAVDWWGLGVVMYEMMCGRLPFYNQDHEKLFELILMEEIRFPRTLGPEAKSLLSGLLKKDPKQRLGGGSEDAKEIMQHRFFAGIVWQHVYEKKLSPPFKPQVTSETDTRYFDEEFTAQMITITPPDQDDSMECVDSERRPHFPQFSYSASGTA
Serine/threonine-protein kinase Nek5 (Homo sapiens), sequence (Q6P3R8 whole entry, the tested form may be a part, canonical isoform): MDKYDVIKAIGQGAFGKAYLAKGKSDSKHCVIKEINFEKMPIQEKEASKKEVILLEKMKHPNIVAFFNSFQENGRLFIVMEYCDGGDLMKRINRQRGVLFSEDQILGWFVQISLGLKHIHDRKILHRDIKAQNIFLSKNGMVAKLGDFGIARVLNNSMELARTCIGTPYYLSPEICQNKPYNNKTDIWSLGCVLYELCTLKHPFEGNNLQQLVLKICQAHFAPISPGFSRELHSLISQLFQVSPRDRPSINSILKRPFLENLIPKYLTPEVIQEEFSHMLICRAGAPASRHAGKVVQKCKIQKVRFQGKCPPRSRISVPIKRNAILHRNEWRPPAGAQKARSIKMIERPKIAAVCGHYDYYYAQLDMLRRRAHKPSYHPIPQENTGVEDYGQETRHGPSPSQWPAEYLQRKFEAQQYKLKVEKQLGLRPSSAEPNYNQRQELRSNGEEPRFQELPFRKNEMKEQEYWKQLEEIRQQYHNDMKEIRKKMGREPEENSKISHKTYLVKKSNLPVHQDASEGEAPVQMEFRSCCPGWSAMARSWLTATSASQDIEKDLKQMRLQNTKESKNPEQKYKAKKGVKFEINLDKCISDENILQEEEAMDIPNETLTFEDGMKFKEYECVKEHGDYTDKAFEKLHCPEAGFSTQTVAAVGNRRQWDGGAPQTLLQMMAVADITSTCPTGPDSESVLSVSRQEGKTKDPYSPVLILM
Dual specificity mitogen-activated protein kinase kinase 1 (Homo sapiens), sequence (Q02750 whole entry, the tested form may be a part): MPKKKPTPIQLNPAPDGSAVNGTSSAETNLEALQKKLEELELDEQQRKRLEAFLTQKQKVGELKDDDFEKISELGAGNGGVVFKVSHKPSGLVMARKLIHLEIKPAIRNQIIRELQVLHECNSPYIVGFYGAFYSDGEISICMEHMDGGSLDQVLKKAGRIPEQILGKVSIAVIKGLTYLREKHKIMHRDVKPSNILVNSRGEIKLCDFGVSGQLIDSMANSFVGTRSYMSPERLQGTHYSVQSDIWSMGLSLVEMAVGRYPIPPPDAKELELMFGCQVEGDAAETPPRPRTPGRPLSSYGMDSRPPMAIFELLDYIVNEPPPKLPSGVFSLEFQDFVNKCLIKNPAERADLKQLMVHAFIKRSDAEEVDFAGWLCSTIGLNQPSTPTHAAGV
Mitogen-activated protein kinase kinase kinase 2 (Homo sapiens), sequence (Q9Y2U5 whole entry, the tested form may be a part, canonical isoform): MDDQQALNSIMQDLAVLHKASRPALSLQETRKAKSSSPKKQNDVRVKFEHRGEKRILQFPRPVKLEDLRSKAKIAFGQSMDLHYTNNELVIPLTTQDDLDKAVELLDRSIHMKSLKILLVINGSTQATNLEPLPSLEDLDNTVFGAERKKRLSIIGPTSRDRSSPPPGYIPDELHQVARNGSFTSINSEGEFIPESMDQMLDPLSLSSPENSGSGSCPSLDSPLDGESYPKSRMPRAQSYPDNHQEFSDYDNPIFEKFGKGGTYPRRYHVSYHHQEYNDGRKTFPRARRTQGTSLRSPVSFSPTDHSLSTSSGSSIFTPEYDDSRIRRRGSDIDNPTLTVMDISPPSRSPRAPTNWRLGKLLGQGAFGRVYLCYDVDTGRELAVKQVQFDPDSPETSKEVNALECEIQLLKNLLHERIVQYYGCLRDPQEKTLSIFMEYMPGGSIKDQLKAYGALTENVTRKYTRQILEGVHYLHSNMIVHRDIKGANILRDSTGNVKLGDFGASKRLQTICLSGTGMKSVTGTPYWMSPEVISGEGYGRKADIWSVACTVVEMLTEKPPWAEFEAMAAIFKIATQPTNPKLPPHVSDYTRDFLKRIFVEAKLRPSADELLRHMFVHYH
Fibroblast growth factor receptor 3 (Homo sapiens), sequence (P22607 23-806 limits assumed): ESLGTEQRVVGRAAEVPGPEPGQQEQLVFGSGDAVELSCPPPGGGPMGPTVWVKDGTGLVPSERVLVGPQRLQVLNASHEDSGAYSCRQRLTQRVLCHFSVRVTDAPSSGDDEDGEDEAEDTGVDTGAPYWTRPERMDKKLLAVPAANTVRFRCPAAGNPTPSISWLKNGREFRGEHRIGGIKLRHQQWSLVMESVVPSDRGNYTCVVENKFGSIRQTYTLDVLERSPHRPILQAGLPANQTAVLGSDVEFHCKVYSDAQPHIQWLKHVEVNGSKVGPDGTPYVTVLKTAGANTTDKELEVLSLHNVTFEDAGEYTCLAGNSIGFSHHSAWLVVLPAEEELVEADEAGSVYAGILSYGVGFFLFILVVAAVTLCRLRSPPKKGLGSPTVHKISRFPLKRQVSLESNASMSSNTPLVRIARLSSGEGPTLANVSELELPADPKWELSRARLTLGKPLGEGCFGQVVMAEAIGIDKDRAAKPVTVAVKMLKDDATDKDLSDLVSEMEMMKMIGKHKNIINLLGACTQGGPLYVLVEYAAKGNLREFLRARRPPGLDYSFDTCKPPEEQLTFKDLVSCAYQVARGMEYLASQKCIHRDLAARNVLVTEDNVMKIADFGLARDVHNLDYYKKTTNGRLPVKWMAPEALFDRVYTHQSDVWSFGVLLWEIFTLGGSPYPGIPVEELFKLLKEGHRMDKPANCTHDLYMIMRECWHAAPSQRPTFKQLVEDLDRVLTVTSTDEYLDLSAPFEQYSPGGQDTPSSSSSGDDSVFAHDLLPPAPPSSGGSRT
Fibroblast growth factor receptor 2 (Homo sapiens), sequence (P21802 22-821 limits assumed): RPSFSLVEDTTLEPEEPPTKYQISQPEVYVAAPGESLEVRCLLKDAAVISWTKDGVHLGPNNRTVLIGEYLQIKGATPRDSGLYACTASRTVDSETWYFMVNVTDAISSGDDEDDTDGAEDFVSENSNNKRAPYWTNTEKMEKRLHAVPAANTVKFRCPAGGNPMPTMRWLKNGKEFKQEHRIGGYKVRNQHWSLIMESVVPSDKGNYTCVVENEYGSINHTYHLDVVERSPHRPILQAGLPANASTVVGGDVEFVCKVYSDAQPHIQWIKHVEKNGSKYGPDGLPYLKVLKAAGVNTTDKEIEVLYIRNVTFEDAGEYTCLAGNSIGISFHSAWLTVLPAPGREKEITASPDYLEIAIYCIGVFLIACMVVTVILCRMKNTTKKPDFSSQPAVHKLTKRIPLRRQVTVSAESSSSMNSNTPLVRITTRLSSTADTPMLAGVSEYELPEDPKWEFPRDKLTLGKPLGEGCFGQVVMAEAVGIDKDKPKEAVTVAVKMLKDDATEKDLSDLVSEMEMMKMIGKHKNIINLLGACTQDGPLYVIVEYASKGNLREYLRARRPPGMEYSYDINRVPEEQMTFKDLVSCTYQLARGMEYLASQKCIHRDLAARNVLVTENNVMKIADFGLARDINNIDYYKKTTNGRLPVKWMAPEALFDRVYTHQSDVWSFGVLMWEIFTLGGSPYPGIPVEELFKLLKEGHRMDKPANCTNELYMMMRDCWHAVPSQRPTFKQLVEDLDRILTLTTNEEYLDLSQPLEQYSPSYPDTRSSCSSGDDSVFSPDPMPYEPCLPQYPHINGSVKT
Mitogen-activated protein kinase kinase kinase 9 (Homo sapiens), sequence (P80192 whole entry, looked up, the tested form may be a part, canonical isoform): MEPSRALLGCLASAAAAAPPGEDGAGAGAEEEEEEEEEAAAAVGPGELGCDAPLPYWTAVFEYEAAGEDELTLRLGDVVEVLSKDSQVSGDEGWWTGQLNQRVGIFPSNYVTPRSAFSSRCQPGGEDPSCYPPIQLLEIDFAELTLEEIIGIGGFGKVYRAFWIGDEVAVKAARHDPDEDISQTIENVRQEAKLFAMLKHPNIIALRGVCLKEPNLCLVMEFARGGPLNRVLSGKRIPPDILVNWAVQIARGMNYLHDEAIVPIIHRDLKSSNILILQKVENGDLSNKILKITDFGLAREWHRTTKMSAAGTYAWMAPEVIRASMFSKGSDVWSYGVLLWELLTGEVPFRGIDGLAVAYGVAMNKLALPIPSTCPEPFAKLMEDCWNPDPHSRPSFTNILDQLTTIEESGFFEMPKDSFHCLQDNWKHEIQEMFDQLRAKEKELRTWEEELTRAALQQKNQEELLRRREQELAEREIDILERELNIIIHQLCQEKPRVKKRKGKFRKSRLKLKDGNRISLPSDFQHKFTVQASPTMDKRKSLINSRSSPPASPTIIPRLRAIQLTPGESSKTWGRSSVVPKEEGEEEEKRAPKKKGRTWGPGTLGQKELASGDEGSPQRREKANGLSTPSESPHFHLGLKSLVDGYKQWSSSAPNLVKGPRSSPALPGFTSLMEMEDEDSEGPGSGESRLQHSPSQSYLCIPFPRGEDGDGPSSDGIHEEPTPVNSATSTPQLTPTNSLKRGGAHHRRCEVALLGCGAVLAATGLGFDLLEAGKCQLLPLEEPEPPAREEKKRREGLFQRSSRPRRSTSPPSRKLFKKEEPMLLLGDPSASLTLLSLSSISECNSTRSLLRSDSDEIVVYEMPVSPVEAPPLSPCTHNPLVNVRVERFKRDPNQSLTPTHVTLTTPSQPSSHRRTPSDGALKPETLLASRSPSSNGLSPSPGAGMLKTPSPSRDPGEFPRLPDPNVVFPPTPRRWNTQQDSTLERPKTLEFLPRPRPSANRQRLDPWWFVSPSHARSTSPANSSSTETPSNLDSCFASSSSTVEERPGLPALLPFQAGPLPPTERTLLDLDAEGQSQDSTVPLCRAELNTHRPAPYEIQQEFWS

The inhibition is the change of the read-out against control, counted positive when it falls. Consider `COc1cc(N2CCC(N3CCN(C)CC3)CC2)ccc1Nc1ncc2c(n1)N(C)c1ccccc1C(=O)N2C`, for which the inhibition in experiment [1] turned out to be 100%; in experiment [3], 100%; in experiment [4] it was 100%; in [5], 42%; in experiment [7], 91%; in experiment [8], 79%. In addition, the inhibition in [9] was 100%; in [10], 98%; in experiment [14] it was 33%; in experiment [15], 54%; in experiment [16] it was 79%; in experiment [17], 100%. Further, the inhibition in experiment [19] was determined as 100%; in [20], 84%; in experiment [22], 15%; in [23] it was 100%; in experiment [24], 28%; in experiment [25], 65%. Moreover, the inhibition in experiment [26] was found to be 100%. For the same molecule, the residual activity in [2] was found to be 80%; in experiment [6] it was 71%; in experiment [11], 85%; in [12] it was 80%; in [13] it was 75%; in experiment [18], 93%. The residual activity in experiment [21] came to 97%; in [27], 93%; in [28], 95%.

Consider `COc1cc(C(=O)N2CCC(N3CCN(C)CC3)CC2)ccc1Nc1ncc2c(n1)N(C1CCCC1)c1ccccc1C(=O)N2C`, for which the inhibition in [29] was -0.3%.

Source of the values: ChEMBL document CHEMBL5678810.
